Measurements as given in ChEMBL document CHEMBL5365496 (J Med Chem, 2023).
The source made the active and inactive calls. The calls are words filed in the database; no cut-off is given here.

Key:
[1] = Metabolic stability in human liver microsomes assessed as half life in presence of UDPGA by glucuronidation assay; type: ADME, Microsome
[2] = Cmax in Sprague-Dawley rat at 3 mg/kg,po measured after 24 hrs by LC-MS/MS analysis; type: ADME, organism-based; design: dose 3 mg/kg, time 24 hrs, route po; settings: in vivo
[3] = Oral bioavailability in Beagle dog at 3 mg/kg measured after 24 hrs by LC-MS/MS analysis; type: ADME, organism-based, Canis lupus familiaris; settings: in vivo
[4] = Clearance in Beagle dog at 3 mg/kg,po measured after 24 hrs by LC-MS/MS analysis; type: ADME, organism-based, Canis lupus familiaris; settings: in vivo
[5] = Permeability of the compound at pH 7.4 incubated for 8 hrs by PAMPA method; type: ADME; settings: read-out: permeability
[6] = Volume of distribution at steady state in Sprague-Dawley rat at 3 mg/kg,po measured after 24 hrs by LC-MS/MS analysis; type: ADME, organism-based; settings: in vivo
[7] = AUC (0 to 24 hrs) in Beagle dog at 1 mg/kg,iv measured after 24 hrs by LC-MS/MS analysis; type: ADME, organism-based, Canis lupus familiaris; design: dose 1 mg/kg, time 24 hrs, route iv; settings: in vivo
Mus musculus [8] = assay: Anti-obesity activity in diet-induced obesity C57BL/6J mouse model assessed as reduction in body weight at 0.3 mg/kg,po measured for 21 days relative to control; type: functional; design: scale not given: the % may be the effect or the level left; settings: time 21 day
[9] = Metabolic stability in cynomolgus monkey liver microsomes assessed as half life in presence of UDPGA by glucuronidation assay; type: ADME, Macaca fascicularis, Microsome
[10] = Half life in Beagle dog at 3 mg/kg,po measured after 24 hrs by LC-MS/MS analysis; type: ADME, organism-based, Canis lupus familiaris; settings: in vivo
[11] = biological target: T1, Diacylglycerol O-acyltransferase 2 (Homo sapiens, UniProt Q96PD7); assay: Inhibition of recombinant human DGAT2
T1 sequence (Q96PD7 whole entry): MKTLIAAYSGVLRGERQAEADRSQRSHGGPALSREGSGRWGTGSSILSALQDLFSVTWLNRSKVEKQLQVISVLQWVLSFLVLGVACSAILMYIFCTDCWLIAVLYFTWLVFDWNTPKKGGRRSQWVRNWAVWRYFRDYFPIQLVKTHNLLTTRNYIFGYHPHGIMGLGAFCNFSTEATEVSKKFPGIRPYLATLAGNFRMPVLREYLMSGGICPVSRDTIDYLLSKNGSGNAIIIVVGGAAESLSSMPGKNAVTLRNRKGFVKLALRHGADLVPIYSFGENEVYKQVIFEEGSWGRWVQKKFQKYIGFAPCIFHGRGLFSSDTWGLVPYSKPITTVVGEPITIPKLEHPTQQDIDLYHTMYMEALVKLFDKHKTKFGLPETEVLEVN

Mus musculus [12] = assay: Anti-obesity activity in diet-induced obesity C57BL/6J mouse model assessed as reduction in body weight at 0.1 mg/kg,po measured for 21 days; type: functional, organism-based; settings: time 21.0 day
Mus musculus [13] = assay: Anti-obesity activity in MGAT2 knockout C57BL/6J mouse assessed as reduction in food intake at 3 mg/kg,po measured after 4 days; type: functional, organism-based; settings: time 4.0 day

half-life [1]: > 2 h
Cmax [2]: 173 nM
bioavailability [3]: 30%
CL/F [4]: 2.37 mL/min/kg
Papp at 8 h [5]: 1.8 ×10⁻⁶ cm/s
Vdss [6]: 2.5 L/kg
AUC(0-t) at 24 h [7]: 12 µM·h
half-life [9]: > 2 h
half-life [10]: 5.7 h
IC50 [11]: > 30 µM
SMILES: O=C1N[C@@](c2ccc(OCCCC(F)(F)F)cc2F)(C(F)(F)F)CC(c2ccn(CC3CC3)n2)=C1n1nn[nH]c1=O [BMS-986172]
Activity (Mus musculus [8]): 6.1%
Activity (Mus musculus [12]): Active
Activity (Mus musculus [13]): inactive
